Reference: DBAASP
Values after ≈ are worked out from the molar mass of the structure shown. Values joined by “and” are separate entries in the source; they are usually repeats but may differ in a detail not shown here. Equal values may be shown once. Values belong to the compound of their own block, whether it stands above or below them.

Columns and labels:
Assay in all cases: ≥ marks a high value that may be exact or a test limit, other limits are often not marked, values filed in µg/mL are converted to µM
[1] = tested on: Escherichia coli
[2] = tested on: Bifidobacterium longum subsp. infantis
[3] = tested on: Staphylococcus aureus
[4] = tested on: Staphylococcus aureus C623
[5] = tested on: Enterococcus faecalis W61950
[6] = tested on: Pseudomonas aeruginosa 213
[7] = tested on: Enterococcus faecium mic80
[8] = tested on: Pseudomonas aeruginosa PAO1 H103
[9] = tested on: Klebsiella pneumoniae ESBL 63575
[10] = tested on: Pseudomonas aeruginosa 198
[11] = tested on: Klebsiella pneumoniae ESBL 61962
[12] = tested on: Stenotrophomonas maltophilia ATCC 13637
[13] = tested on: Pseudomonas aeruginosa LES400
[14] = tested on: Enterococcus faecium t62764
[15] = tested on: Enterococcus faecalis f43559
[16] = tested on: Escherichia coli ESBL 63103
[17] = tested on: Pseudomonas aeruginosa H1027
[18] = tested on: Pseudomonas aeruginosa H1030
[19] = tested on: Enterobacter cloacae 218R
[20] = tested on: Enterococcus faecalis ATCC 29212
[21] = tested on: Escherichia coli ESBL 64771
[22] = tested on: Pseudomonas aeruginosa 9
[23] = tested on: Staphylococcus aureus ATCC 25923
[24] = tested on: Serratia rubidaea X01
[25] = tested on: Enterococcus faecalis 981
[26] = tested on: Psychrobacter faecalis X29
[27] = tested on: Escherichia coli ATCC 25922
[28] = tested on: Candida albicans ATCC 10231
[29] = tested on: Staphylococcus carnosus KHS
[30] = tested on: Rhodococcus rhodochrous X15
[31] = tested on: Pseudomonas aeruginosa 11053
[32] = tested on: Bacillus licheniformis X39
[33] = tested on: Candida albicans 820
[34] = tested on: Listeria monocytogenes EGD
[35] = tested on: Escherichia coli ML-35p
[36] = tested on: Staphylococcus epidermidis
[37] = tested on: Escherichia coli BL21
[38] = tested on: Staphylococcus aureus ATCC BAA-41
[39] = tested on: Staphylococcus aureus ATCC 6538P
[40] = tested on: Pseudomonas aeruginosa PAO1
[41] = tested on: Escherichia coli HP101BA 7601c
[42] = tested on: Staphylococcus aureus PTCC 1431
[43] = tested on: Micrococcus luteus PTCC 1625
[44] = tested on: Klebsiella pneumoniae PTCC 1388

MIC [1]: > 1450 µM | MIC [2]: ≥ 1450 µM | MIC [3]: > 1450 µM
SMILES: CC[C@H](C)[C@H](NC(=O)[C@@H]1CCCN1C(=O)[C@H](CCC(N)=O)NC(=O)[C@@H]1CCCN1C(=O)[C@@H](NC(=O)[C@H](CCC(N)=O)NC(=O)[C@H](CCC(N)=O)NC(=O)[C@H](CCSC)NC(=O)[C@H](CC(C)C)NC(=O)[C@@H]1CCCN1C(=O)[C@H](CCC(N)=O)NC(=O)[C@H](CC(C)C)NC(=O)[C@H](CC(C)C)NC(=O)[C@@H]1CCCN1C(=O)[C@H](CC(C)C)NC(=O)[C@@H]1CCCN1C(=O)[C@H](CC(C)C)NC(=O)[C@@H](N)Cc1cnc[nH]1)C(C)C)C(=O)O [HLPLPLLQPLMQQVPQPI]

MIC [4]: 2.74 µM (≈ 4 µg/mL) | MIC [5]: ≥ 87 µM | MIC [6]: ≥ 43.2 µM | MIC [7]: 11 µM (≈ 16 µg/mL) | MIC [8]: 11 µM (≈ 16 µg/mL) | MIC [9]: 21.2 µM (≈ 31 µg/mL) | MIC [10]: 21.2 µM (≈ 31 µg/mL) | MIC [11]: ≥ 87 µM | MIC [12]: 0.685 µM (≈ 1 µg/mL) | MIC [13]: 11 µM (≈ 16 µg/mL) | MIC [14]: 2.74 µM (≈ 4 µg/mL) | MIC [15]: ≥ 87 µM | MIC [16]: 11 µM (≈ 16 µg/mL) | MIC [17]: 2.74 µM (≈ 4 µg/mL) | MIC [18]: 21.2 µM (≈ 31 µg/mL) | MIC [19]: ≥ 43.2 µM | MIC [20]: 43.2 µM (≈ 63 µg/mL) | MIC [21]: 1.37 µM (≈ 2 µg/mL) | MIC [22]: 21.2 µM (≈ 31 µg/mL) | MIC [23]: 2.74 µM (≈ 4 µg/mL)
SMILES: NCCCC[C@H](NC(=O)[C@H](CCCCN)NC(=O)[C@H](Cc1c[nH]c2ccccc12)NC(=O)[C@H](Cc1c[nH]c2ccccc12)NC(=O)[C@H](CCCN=C(N)N)NC(=O)[C@H](CCCCN)NC(=O)[C@@H](N)Cc1c[nH]c2ccccc12)C(=O)N[C@@H](Cc1c[nH]c2ccccc12)C(=O)N[C@@H](CCCN=C(N)N)C(=O)O [WKRWWKKWR]

MIC [24]: 9 µM (≈ 23.9 µg/mL) | MIC [25]: 9 µM (≈ 23.9 µg/mL) | MIC [26]: 9 µM (≈ 23.9 µg/mL) | MIC [27]: 150 µM (≈ 398 µg/mL) | MIC [28]: 150 µM (≈ 398 µg/mL) | MIC [29]: 9 µM (≈ 23.9 µg/mL) | MIC [30]: 2.3 µM (≈ 6.1 µg/mL) | MIC [31]: ≥ 75 µM | MIC [32]: 9 µM (≈ 23.9 µg/mL) | MIC [23]: 9 µM (≈ 23.9 µg/mL)
SMILES: CC[C@H](C)[C@@H]1NC(=O)[C@H](CCCCN)NC(=O)[C@@H](NC(=O)[C@H](Cc2ccccc2)NC(=O)[C@H](CC(C)C)NC(=O)[C@@H](NC(=O)[C@@H]2CCCN2C(=O)[C@@H](NC(=O)[C@@H](NC(=O)[C@H](CCCCN)NC(=O)[C@H](CO)NC(=O)[C@H](C)NC(=O)[C@@H](NC(=O)[C@H](CC(N)=O)NC(=O)[C@H](CC(C)C)NC(=O)[C@H](CC(C)C)NC(=O)[C@@H](NC(=O)[C@H](CO)NC(=O)[C@H](CC(C)C)NC(=O)[C@@H](N)Cc2ccccc2)[C@@H](C)O)C(C)C)C(C)C)C(C)C)[C@@H](C)O)CSSC[C@@H](C(=O)O)NC(=O)[C@H](CCCCN)NC(=O)[C@H](CCCCN)NC(=O)[C@H]([C@@H](C)O)NC1=O [FLSTLLNVASKVVPTLFCKITKKC]

MIC [33]: 4 µM and 7.5 µM | MIC [34]: 2.1 µM and 1.9 µM | MIC [35]: 1.7 µM and 2.9 µM
SMILES: CC[C@H](C)[C@@H]1NC(=O)[C@H](CCCN=C(N)N)NC(=O)[C@@H]2CSSC[C@@H]3NC(=O)[C@H](C(C)C)NC(=O)CNC(=O)[C@H](Cc4ccccc4)NC(=O)[C@H](Cc4ccc(O)cc4)NC(=O)[C@H](C(C)C)NC(=O)[C@H](CCC(=O)O)NC(=O)[C@H](CC(C)C)NC(=O)CNC(=O)[C@H](CC(C)C)NC(=O)[C@H](CSSC[C@H](NC(=O)[C@H](CCCN=C(N)N)NC(=O)[C@H](CCCN=C(N)N)NC(=O)[C@H](C)NC(=O)[C@H](CC(C)C)NC(=O)[C@H](CCCN=C(N)N)NC(=O)CNC(=O)[C@H](Cc4cnc[nH]4)NC(=O)[C@H](CC(C)C)NC(=O)[C@H](Cc4ccccc4)NC3=O)C(=O)N[C@H](C(=O)N[C@@H](CCCN=C(N)N)C(=O)O)CSSC[C@H](NC(=O)[C@@H](NC(=O)[C@@H](N)CCCN=C(N)N)[C@@H](C)CC)C(=O)N[C@@H](CCCN=C(N)N)C(=O)N2)NC(=O)[C@H](CCCN=C(N)N)NC(=O)CNC1=O [RICRCRIGRCLGLEVYFGVCFLHGRLARRCCR]

MIC [1]: > 2510 µM | MIC [2]: ≥ 2510 µM | MIC [3]: > 2510 µM
SMILES: CC[C@H](C)[C@H](NC(=O)[C@H](CCC(N)=O)NC(=O)[C@@H](N)Cc1cnc[nH]1)C(=O)N[C@@H](Cc1ccc(O)cc1)C(=O)N1CCC[C@H]1C(=O)N[C@H](C(=O)N[C@H](C(=O)N[C@@H](CCC(N)=O)C(=O)N1CCC[C@H]1C(=O)N[C@@H](CC(C)C)C(=O)O)[C@@H](C)O)C(C)C [HQIYPVTQPL]

MIC [36]: 0.5 µM (≈ 0.908 µg/mL) | MIC [37]: 1.41 µM (≈ 2.57 µg/mL) | MIC [38]: 16 µM (≈ 29 µg/mL) | MIC [39]: 16 µM (≈ 29 µg/mL) | MIC [40]: 1.41 µM (≈ 2.57 µg/mL)
SMILES: CC[C@H](C)[C@H](NC(=O)[C@H](CCCCN)NC(=O)[C@H](CCCCN)NC(=O)[C@H](Cc1ccccc1)NC(=O)[C@H](CCCCN)NC(=O)[C@H](CCCCN)NC(=O)[C@H](Cc1c[nH]c2ccccc12)NC(=O)[C@@H](N)CCCCN)C(=O)NCC(=O)N[C@@H](C)C(=O)N[C@H](C(=O)N[C@@H](CC(C)C)C(=O)N[C@@H](CCCCN)C(=O)N[C@@H](CCCCN)C(=O)N[C@@H](CC(C)C)C(=O)O)C(C)C [KWKKFKKIGAVLKKL]

MIC [41]: 9.6 µM (≈ 18 µg/mL) | MIC [42]: 8.1 µM (≈ 15.2 µg/mL) | MIC [43]: 6 µM (≈ 11.3 µg/mL) | MIC [44]: 10.6 µM (≈ 19.9 µg/mL)
SMILES: CC(C)C[C@H](NC(=O)CNC(=O)[C@H](C)NC(=O)[C@@H](N)CCCN=C(N)N)C(=O)N[C@@H](CCCCN)C(=O)N[C@@H](Cc1ccccc1)C(=O)N1CCC[C@H]1C(=O)N[C@H](C(=O)NCC(=O)N[C@@H](CCCN=C(N)N)C(=O)N[C@H](C(=O)N[C@@H](Cc1cnc[nH]1)C(=O)N[C@@H](CCCN=C(N)N)C(=O)N[C@@H](CC(C)C)C(=O)N[C@@H](CC(C)C)C(=O)N[C@@H](CCCN=C(N)N)C(=O)O)C(C)C)C(C)C [RAGLKFPVGRVHRLLR]
